Laboratory results as given in patent publication US8063229B2, “Antifungal triazole derivatives, method for the preparation thereof and pharmaceutical composition containing same” (Daewoong Pharmaceutical Co., Ltd., priority 2006, dated 2011).
In brackets after ≈: the same amount, converted by molar mass.

Assays:
Candida albicans [1] = test: In vitro assay for antifungal activity (MIC80); format: cell-based; conditions: concentration at which 80% inhibition of fungus growth occurs, RPMI 1640, alamarBlue, 24 hours, duplicate; for MIC80: Candida albicans
Procedure: (§1) Each fungal strain to be tested was inoculated onto Sabouraud dextrose agar, YM agar, and potato dextrose agar and cultured at 35° C. for two to three days. Single colonies of such of the yeast fungi were collected from the culture and suspended in 5 ml of 0.85% sterile saline, in an appropriate amount so that the absorbance at 530 nm became 0.108. The suspensions was diluted serially by 1:50 (RPMI 1640 media:sterile saline) and then further diluted by 1:20 (RPMI 1640 media:sterile saline) to prepare liquid inocula having a cell count ranging from 1.0×10^3 to 5.0×10^3 CFU/ml.
(§2) Antifungal samples were prepared by serially diluting each of the compounds of the present invention in RPMI 1640 media to concentrations range from 0.0156 to 32 μg/ml. As an excipient, DMSO was added to the antifungal sample to a final concentration of 1% (VAT). 0.1 ml of each of the serially diluted test solution was added to each well of 96 well plate, followed by adding 0.1 ml of each of the fungal inocula thereto.
(§3) At a given concentration of the test compound, the fungus growth was observed, after 24 hours, with the naked eye for all yeast species except for Cryptococcus neoformans, and the filamentous fungus growth was observed, after 48 hours. Also, using the growth indicator alamarBlue, MIC80, the concentration of the test compound at which 80% inhibition of the fungus growth occurs was determined based on the value observed for the negative control.

Candida glabrata = test: In vitro assay for antifungal activity (MIC80); format: cell-based; conditions: concentration at which 80% inhibition of fungus growth occurs, RPMI 1640, alamarBlue, 24 hours, duplicate; for MIC80: Nakaseomyces glabratus
Procedure: as §1, §2, §3

Candida krusei = test: In vitro assay for antifungal activity (MIC80); format: cell-based; conditions: concentration at which 80% inhibition of fungus growth occurs, RPMI 1640, alamarBlue, 24 hours, duplicate; for MIC80: Pichia kudriavzevii
Procedure: as §1, §2, §3

Candida parapsilosis = test: In vitro assay for antifungal activity (MIC80); format: cell-based; conditions: concentration at which 80% inhibition of fungus growth occurs, RPMI 1640, alamarBlue, 24 hours, duplicate; for MIC80: Lodderomyces parapsilosis
Procedure: as §1, §2, §3

Candida tropicallis = test: In vitro assay for antifungal activity (MIC80); format: cell-based; conditions: concentration at which 80% inhibition of fungus growth occurs, RPMI 1640, alamarBlue, 24 hours, duplicate; for MIC80: Candida
Procedure: as §1, §2, §3

Cryptococcus neoformans = test: In vitro assay for antifungal activity (MIC80); format: cell-based; conditions: concentration at which 80% inhibition of fungus growth occurs, RPMI 1640, alamarBlue, duplicate; for MIC80: Cryptococcus neoformans
Procedure: as §1, §2, §3

Candida albicans [2] = test: In vivo assay for antifungal activity (survival of infected mice); conditions: male mice, Candida albicans i.v.; 10 mg/kg orally once a day for seven days from 2 hours after infection; survival 28 days after infection
Procedure: 0.1 mL of a suspension containing 5×10^7 CFU/ml of Candida albicans was administered to each of 10 male mice by intravenous injection. 10 mg/kg of each of the test compounds to orally administer to the inoculated mouse 2 hours after the fungal infection. The test compound was administered once a day for seven days. The number of mice which survived the fungal infection for 28 days after the fungal infection was determined as % survival for each test group, and the results are given in Table 7: […]

[3] = Assay for subacute toxicity in mice; format: in vivo
Procedure: Subacute cytotoxicity tests were conducted by administering Example compounds 41 and 45, each suspended in aqueous 0.5% methylcellulose to mice once a day for 2 weeks.

[4] = mice, suspended in aqueous 0.5% methylcellulose, once a day for 2 weeks

SMILES	MIC80 (Candida albicans [1]) [µg/mL]	MIC80 (Candida glabrata) [µg/mL]	MIC80 (Candida krusei) [µg/mL]	MIC80 (Candida parapsilosis) [µg/mL]	MIC80 (Candida tropicallis) [µg/mL]	MIC80 (Cryptococcus neoformans) [µg/mL]	% Survival (Candida albicans [2]) [%]	changes in the living states, organs, liver enzyme and liver weight [3, 4]	toxic syndromes [3, 4]	MIC80 Candida albicans (Candida albicans [1])	MIC80 Candida glabrata (Candida glabrata) [µg/mL]	MIC80 Candida krusei (Candida krusei) [µg/mL]	MIC80 Candida parapsilosis (Candida parapsilosis)	MIC80 Candida tropicallis (Candida tropicallis)	MIC80 Cryptococcus neoformans (Cryptococcus neoformans) [µg/mL]	toxic syndromes ([3]; mouse, in vivo)
C[C@@H](n1cc(N2CCN(c3ccc(Cl)cc3)C2=O)cn1)[C@](O)(Cn1cncn1)c1ccc(F)cc1F [Example 1, 1-(4-Chlorophenyl)-3-(1-((2R,3R)-3-(2,4-difluorophenyl)-3-hydroxy-4-(1H-1,2,4-triazol-1-yl)butan-2-yl)-1H-pyrazol-4-yl)imidazolidin-2-one]	≤ 0.015	8 (≈ 15.6 µM)	2 (≈ 3.89 µM)	0.125 (≈ 0.243 µM)	1 (≈ 1.95 µM)	0.25 (≈ 0.486 µM)										
C[C@@H](n1cc(/C=C/c2ccc(Cl)cc2)cn1)[C@](O)(Cn1cncn1)c1ccc(F)cc1F [Example 41, (2R,3R,E)-3-(4-(4-Chlorostyryl)-1H-pyrazol-1-yl)-2-(2,4-difluorophenyl)-1-(1H-1,2,4-triazol-1-yl)butan-2-ol]	≤ 0.015	1 (≈ 2.19 µM)	0.5 (≈ 1.1 µM)	≤ 0.015	0.125 (≈ 0.274 µM)	≤ 0.015	100	no changes	none of the mice were observed to suffer from toxic syndromes							
C[C@@H](n1cc(C#Cc2ccc(F)cc2)cn1)[C@](O)(Cn1cncn1)c1ccc(F)cc1F [Example 45]							100			≦0.015 μg/ml	2 (≈ 4.57 µM)	0.5 (≈ 1.14 µM)	≦0.015 μg/ml	≦0.015 μg/ml	0.062 (≈ 0.142 µM)	none of the mice were observed to suffer from toxic syndromes
OC(Cn1cncn1)(Cn1cncn1)c1ccc(F)cc1F [Fluconazole, fluconazole, reference compound]	4 (≈ 13.1 µM)	> 32	4 (≈ 13.1 µM)	> 32	> 32	32 (≈ 104 µM)	50									

Further lines, with some results ahead:

MIC80 (Candida albicans [1]) [µg/mL]	MIC80 (Candida glabrata) [µg/mL]	MIC80 (Candida krusei) [µg/mL]	MIC80 (Candida parapsilosis) [µg/mL]	MIC80 (Candida tropicallis) [µg/mL]	MIC80 (Cryptococcus neoformans) [µg/mL]	SMILES	% Survival (Candida albicans [2]) [%]	changes in the living states, organs, liver enzyme and liver weight [3, 4]	toxic syndromes [3, 4]	MIC80 Candida albicans (Candida albicans [1])	MIC80 Candida glabrata (Candida glabrata) [µg/mL]	MIC80 Candida krusei (Candida krusei) [µg/mL]	MIC80 Candida parapsilosis (Candida parapsilosis)	MIC80 Candida tropicallis (Candida tropicallis)	MIC80 Cryptococcus neoformans (Cryptococcus neoformans) [µg/mL]	toxic syndromes ([3]; mouse, in vivo)
≤ 0.015	4 (≈ 7.81 µM)	0.5 (≈ 0.977 µM)	≤ 0.015	0.125 (≈ 0.244 µM)	0.125 (≈ 0.244 µM)	C[C@@H](n1cc(-n2ccn(-c3ccc(Cl)cc3)c2=O)cn1)[C@](O)(Cn1cncn1)c1ccc(F)cc1F [Example 23, 3-(4-Chlorophenyl)-1-(1-((2R,3R)-3-(2,4-difluorophenyl)-3-hydroxy-4-(1H-1,2,4-triazol-1-yl)butan-2-yl)-1H-pyrazol-4-yl)-1H-imidazole-2(3H)-one]										
≤ 0.015	2 (≈ 4.53 µM)	0.25 (≈ 0.566 µM)	≤ 0.015	≤ 0.015	0.125 (≈ 0.283 µM)	C[C@@H](n1cc(CCc2ccc(F)cc2)cn1)[C@](O)(Cn1cncn1)c1ccc(F)cc1F [Example 38, (2R,3R)-2-(2,4-Difluorophenyl)-3-(4-(4-fluorophenethyl)-1H-pyrazol-1-yl)-1-(1H-1,2,4-triazol-1-yl)butan-2-ol]										
≤ 0.015	1 (≈ 2.18 µM)	0.5 (≈ 1.09 µM)	≤ 0.015	0.062 (≈ 0.135 µM)	≤ 0.015	C[C@@H](n1cc(CCc2ccc(Cl)cc2)cn1)[C@](O)(Cn1cncn1)c1ccc(F)cc1F [Example 39, (2R,3R)-3-(4-(4-Chlorophenethyl)-1H-pyrazol-1-yl)-2-(2,4-difluorophenyl)-1-(1H-1,2,4-triazol-1-yl)butan-2-ol]										
≤ 0.015	2 (≈ 4.55 µM)	0.25 (≈ 0.569 µM)	≤ 0.015	≤ 0.015	0.031 (≈ 0.0705 µM)	C[C@@H](n1cc(/C=C/c2ccc(F)cc2)cn1)[C@](O)(Cn1cncn1)c1ccc(F)cc1F [Example 40, (2R,3R,E)-2-(2,4-Difluorophenyl)-3-(4-(4-fluorostyryl)-1H-pyrazol-1-yl)-1-(1H-1,2,4-triazol-1-yl)butan-2-ol]										
0.125 (≈ 0.295 µM)		4 (≈ 9.45 µM)	0.125 (≈ 0.295 µM)		1 (≈ 2.36 µM)	C[C@@H](n1cc(/C=C/c2cnccn2)cn1)[C@](O)(Cn1cncn1)c1ccc(F)cc1F [Example 53, (2R,3R,E)-2-(2,4-Difluorophenyl)-3-(4-(2-(pyrazin-2-yl)vinyl)-1H-pyrazol-1-yl)-1-(1H-1,2,4-triazol-1-yl)butan-2-ol]										
